Patent US20250360124A1, “NOVEL RAS INHIBITORS” (KHR BIOTEC GMBH, priority 2022, published 2025)
Counter-ions that a name gives are not always drawn.

Assays:
Type in all cases: cell-based
HRAS G12V = molecular target: T1, HRAS G12V (Homo sapiens, UniProt P01112, G12V); assay: NanoBit assay for RAS activation (LgBiT-RAS / SmBiT-CRAF RBD); settings: H-RAS G12V with CRAF RBD; 2 h with inhibitor, serum free DMEM; FIG. 1
T1 construct: K, N and HRAS G12V (full length) was cloned with Xho I and Bgl II to LgBit; expressed in transfected cells
T1 sequence (P01112 whole entry G12V): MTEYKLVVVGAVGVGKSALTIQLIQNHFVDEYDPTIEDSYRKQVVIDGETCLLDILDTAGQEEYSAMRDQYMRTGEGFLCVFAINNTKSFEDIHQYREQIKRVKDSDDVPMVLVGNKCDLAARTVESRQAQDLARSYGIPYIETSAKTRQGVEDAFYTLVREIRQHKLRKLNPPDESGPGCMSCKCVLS
Method: (§1) FIG. 1a) and 1b): NanoBit assay for RAS activation (KRAS G12V, NRAS G12V, HRAS G12V)
(§2) N-terminal LgBiT and C-terminal SmBIT construct was purchased from Promega and K, N and HRAS G12V (full length) was cloned with Xho I and Bgl II to LgBit and CRAF Ras binding domain (1-149) was cloned with EcoRI and Bgl II to SmBit. For transfections, 1 μg or 2 μg of (12 well/6 well) plasmids were transfected into cells with 0.5 mM of PEI reagent in 100 μl or 200 μl PBS. One day after transfection, cells were harvested and seeded into 96 well white plates, half area (Greiner). After an additional day the medium was changed to serum free DMEM and the cells were incubated for 2 h with inhibitors. NanoGlo assay was performed according to the manufacturer's instructions. The luminescence was measured using Tecan infinite (Tecan). DMSO-treated cells were set as 1. The results shown are mean mean±SEM from at least 3 independent experiments.

KRAS G12V = molecular target: T2, KRAS G12V (Homo sapiens, UniProt P01116, G12V); assay: as above; settings: K-RAS G12V with CRAF RBD; 2 h with inhibitor, serum free DMEM; FIG. 1
T2 construct: K, N and HRAS G12V (full length) was cloned with Xho I and Bgl II to LgBit; expressed in transfected cells
T2 sequence (P01116 1-188 isoform P01116-2 G12V): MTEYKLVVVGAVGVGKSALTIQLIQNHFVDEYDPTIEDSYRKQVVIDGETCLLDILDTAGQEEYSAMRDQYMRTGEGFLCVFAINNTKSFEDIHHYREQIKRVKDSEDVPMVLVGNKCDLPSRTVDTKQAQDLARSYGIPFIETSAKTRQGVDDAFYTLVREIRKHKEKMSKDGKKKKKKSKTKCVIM
Method: as §1, §2

NRAS G12V = molecular target: T3, NRAS G12V (Homo sapiens, UniProt P01111, G12V); assay: as above; settings: N-RAS G12V with CRAF RBD; 2 h with inhibitor, serum free DMEM; FIG. 1
T3 construct: K, N and HRAS G12V (full length) was cloned with Xho I and Bgl II to LgBit; expressed in transfected cells
T3 sequence (P01111 whole entry G12V): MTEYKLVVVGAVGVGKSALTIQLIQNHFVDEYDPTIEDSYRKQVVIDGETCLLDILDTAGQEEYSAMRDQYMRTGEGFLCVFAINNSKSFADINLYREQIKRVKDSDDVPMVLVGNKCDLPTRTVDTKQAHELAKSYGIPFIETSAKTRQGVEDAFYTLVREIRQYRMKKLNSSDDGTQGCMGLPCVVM
Method: as §1, §2

ASPC1 cells = assay: Soft agar colony formation assay, MTT readout; settings: Homo sapiens, growth in soft agar, colonies stained with MTT, absorbance 570 nm
Method: (§3) FIGS. 2a) and 2b): MTT assay for cell growth
(§4) Metabolic activity was quantified using Cell Proliferation Kit I (Roche, Basel, Switzerland). Cells were seeded in 96-well cell culture plates, using 5000 cells per well for NCI-H358 cells. After treatment, 10 μl of MTT solution was added and incubated for 2 h in CO2 incubator. Then 100 μl of solubilization buffer was added to each well and incubated overnight in CO2 incubator. Cell viability, assessed by the amount of metabolized MTT, was quantified by measuring absorbance at 570 nm.
(§5) MTT assay for the growth of different tumor cell lines with RAS mutations in soft agar with Quinacrine dihydrochloride.
(§6) NCI-H358, H358, H2122, ASPC-1, HCT-116, T24 and HT1080 cells were used for the soft agar colony formation assay. After the treatment with Quinacrine dihydrochloride hydrate, the colonies were stained with MTT and the value was quantified by measuring absorbance at 570 nm after solubilization. The results represent mean±SEM from 3 independent experiments.

HCT-116 cells = assay: Soft agar colony formation assay, MTT readout; settings: Homo sapiens, growth in soft agar, colonies stained with MTT, absorbance 570 nm
Method: as §3, §4, §5, §6

HT1080 cells = assay: Soft agar colony formation assay, MTT readout; settings: Homo sapiens, HT-1080, growth in soft agar, colonies stained with MTT, absorbance 570 nm
Method: as §3, §4, §5, §6

NCI-H2122 cells = assay: Soft agar colony formation assay, MTT readout; settings: Homo sapiens, growth in soft agar, colonies stained with MTT, absorbance 570 nm
Method: as §3, §4, §5, §6

NCI-H358 cells = assay: Soft agar colony formation assay, MTT readout; settings: Homo sapiens, growth in soft agar, colonies stained with MTT, absorbance 570 nm
Method: as §3, §4, §5, §6

T24 cells = assay: Soft agar colony formation assay, MTT readout; settings: Homo sapiens, T-24, growth in soft agar, colonies stained with MTT, absorbance 570 nm
Method: as §3, §4, §5, §6

sNF96.2 cells = assay: MTT assay for cell viability in 96 well plate, RASOpathie model; settings: 48 h treatment
KRAS dependent cells = assay: MTT assay for cell viability in 96 well cell culture plate; settings: 48 h treatment, KRAS dependent cells incl. G12C/Y96D mutation, FIG. 3a
Method: FIGS. 3a) and 3b): MTT assay for cell viability in 96 well cell culture plate Cells were treated with Quinacrine dihydrochloride hydrate for 48 h and cell viability was evaluated by MTT assay. DMSO-treated cells were set as 1. The results shown are mean±SEM from 3 independent experiments.
G12C/Y96D mutation is normally seen in patients, who develop resistance to G12C inhibitor. Thus, patients, who are resistant to G12C inhibitors can still be treated with Quinacrine dihydrochloride.

SMILES: CCN(CC)CCCC(C)Nc1c2ccc(Cl)cc2nc2ccc(OC)cc12 (centres unmarked) [Quinacrine dihydrochloride hydrate, 4-N-(6-chloro-2-methoxyacridin-9-yl)-1-N,1-N-diethylpentane-1,4-diamine;hydrate;dihydrochloride]
- inhibition of RAS activation (NanoBit luminescence) (HRAS G12V): inhibits
- inhibition of RAS activation (NanoBit luminescence) (KRAS G12V): inhibits
- inhibition of RAS activation (NanoBit luminescence) (NRAS G12V): inhibits
- IC50 (ASPC1 cells): 4.28 µM
- IC50 (HCT-116 cells): 5.5 µM
- IC50 (HT1080 cells): 149 µM
- IC50 (NCI-H2122 cells): 2.48 µM
- IC50 (NCI-H358 cells): 5.1 µM
- IC50 (T24 cells): 4 µM
- IC50 (sNF96.2 cells): 4.51 µM
- inhibition of cell viability (KRAS dependent cells): inhibits KRAS dependent cells irrespective of the presence of mutation
